Test system: platelet aggregation that is mediated by αIIbβ3
Assay: Inhibition of ADP-induced platelet aggregation in platelet-rich plasma
Format: cell-based
Conditions: PRP
Description: Disintegrin (Rho) variants were also tested for their ability to inhibit platelet aggregation that is mediated by αIIbβ3. Venous blood (9 parts) samples from healthy donors who had not received any medication for at least two weeks were collected in 3.8% sodium citrate (1 part). Blood samples were centrifuged at 150×g for 10 min to obtain platelet-rich plasma (PRP) and allowed to stand for 5 min, and PRP was collected. The platelet-poor plasma (PPP) was prepared from the remaining blood by centrifuging at 2000×g for 25 min. The PPP platelet count was measured on a hematology analyzer and diluted to 250,000 platelets/μl. A solution of 190 μl of PRP and 10 μl of either Rho or PBS buffer were incubated for 5 min in a Hema Tracer 601 aggregometer at 37° C. Ten microliters of 200 μM adenosine diphosphate (ADP) were further added to monitor the response of platelet aggregation by light transmission.

rhodostomin [Rho wild-type, reference compound]
IC50: 83.2 nM

— patent publication US10870684B2, “Disintegrin variants and pharmaceutical uses thereof” (National Cheng Kung University, priority 2014, dated 2020)
